Patent publication US5725842A, “Method of administering amiloride” (priority 1996, dated 1998)
Where a name gives a salt, the structure may show the parent alone.

What was measured:
[1] = test system: human cystic fibrosis airway epithilia; experiment: Inhibition of Na+ transport (short circuit current, ISC) by amiloride hydrochloride dry powder in minature Ussing chamber; type: cell-based
From the text: Freshly excised human cystic fibrosis airway […] used to assay bioactive amiloride in solution. Freshly excised tissues is obtained from the Operating Room at The University of North Carolina Hospitals as previously described. R. Boucher, M. Stutts, M. Knowles, L. Cantley, and J. Gatzy, Na+ transport in cystic fibrosis respiratory epithelia. Abnormal basal rate and response to adenylate cyclase activation. J. Clin. Invest. 78, 1245-1252 (1986). The tissue preparation is mounted in a minature Ussing chamber that has 6 ml of solution bathing each (mucosal; basolateral) surface of the preparation. The solution is a Krebs-Ringer bicarbonate solution which approximates the ionic composition of plasma. This solution is warmed (37°) and circulated with a gas lift (95% oxygen, 5% CO2) system. Mixing time in this chamber has been previously measured by calibration with dyes (blue dextran) and is five seconds or less. The measurement of sodium transport rates is performed using a voltage clamp that is interfaced to the tissue preparation by pairs of potential sensing electrodes and current passing electrodes. The current required to null the transepithelial potential difference to zero is the short circuit current, which in human airway tissue is an accurate index of sodium transport rates. See R. Boucher et al., supra. […] This experiment was conducted as described above. […]

[2] = Timed release (dissolution) of respirable solid amiloride particles in Krebs-Ringer solution approximating plasma, assayed as bioactive amiloride; type: physicochemical; details: amiloride hydrochloride particles ~1 μm; aqueous solution approximating ionic strength of plasma
From the text: Freshly excised human cystic fibrosis airway […] used to assay bioactive amiloride in solution. Freshly excised tissues is obtained from the Operating Room at The University of North Carolina Hospitals as previously described. R. Boucher, M. Stutts, M. Knowles, L. Cantley, and J. Gatzy, Na+ transport in cystic fibrosis respiratory epithelia. Abnormal basal rate and response to adenylate cyclase activation. J. Clin. Invest. 78, 1245-1252 (1986). The tissue preparation is mounted in a minature Ussing chamber that has 6 ml of solution bathing each (mucosal; basolateral) surface of the preparation. The solution is a Krebs-Ringer bicarbonate solution which approximates the ionic composition of plasma. This solution is warmed (37°) and circulated with a gas lift (95% oxygen, 5% CO2) system. Mixing time in this chamber has been previously measured by calibration with dyes (blue dextran) and is five seconds or less. The measurement of sodium transport rates is performed using a voltage clamp that is interfaced to the tissue preparation by pairs of potential sensing electrodes and current passing electrodes. The current required to null the transepithelial potential difference to zero is the short circuit current, which in human airway tissue is an accurate index of sodium transport rates. See R. Boucher et al., supra.

[3] = Size distribution of amiloride aerosol (Andersen impactor); type: physicochemical; details: MDI with spacer, 60 Lpm
Method: In each test, the MDI aerosol was dispersed into the spacer via a 50 μl metering valve designed to deliver 1 mg amiloride per puff; however, the actual delivery was closer to 3 mg/puff as determined by spectrophotometric analysis of all amiloride collected as discussed below.
After each experiment, the apparatus was disassembled and each component washed individually with 50 ml of distilled water to remove amiloride and lactose particles.

[4] = in vivo
[5] = liquid aerosol, cystic fibrosis; cited from earlier work
airway epithelia = details: applied to luminal membrane; cited from earlier work
[6] = in vivo, po; cited from earlier work

SMILES	inhibition of ISC ([1]; about 1 μm, at about sixty minutes)	time to complete inhibition of ISC ([1]; particle size about 1 μm, Krebs-Ringer bicarbonate, 37°)	timed release effect of respirable solid particles [2]	mass median diameter (mmd) [3]	maximum systemic dose [4]	clinical benefit [5]	inhibition of Na+ and water absorption (airway epithelia)	effective concentration in the airway lumen [6]
N=C(N)NC(=O)c1nc(Cl)c(N)nc1N [amiloride hydrochloride]	Complete Inhibition	about sixty	dissolved slowly over time					
N=C(N)NC(=O)c1nc(Cl)c(N)nc1N [amiloride]				about 6 um	20 mg daily	clinical benefit	inhibit	cannot be achieved
